Laboratory results reported in ChEMBL document CHEMBL2073863, “Cloning and characterization of two human polyspecific organic cation transporters” (DNA Cell Biol, 1997).
“And” between values parts separate entries of the source, which are not always exact repeats. Equal entries are not always repeated.

T1: Solute carrier family 22 member 2 (Homo sapiens, UniProt O15244)
T1 sequence (O15244 whole entry): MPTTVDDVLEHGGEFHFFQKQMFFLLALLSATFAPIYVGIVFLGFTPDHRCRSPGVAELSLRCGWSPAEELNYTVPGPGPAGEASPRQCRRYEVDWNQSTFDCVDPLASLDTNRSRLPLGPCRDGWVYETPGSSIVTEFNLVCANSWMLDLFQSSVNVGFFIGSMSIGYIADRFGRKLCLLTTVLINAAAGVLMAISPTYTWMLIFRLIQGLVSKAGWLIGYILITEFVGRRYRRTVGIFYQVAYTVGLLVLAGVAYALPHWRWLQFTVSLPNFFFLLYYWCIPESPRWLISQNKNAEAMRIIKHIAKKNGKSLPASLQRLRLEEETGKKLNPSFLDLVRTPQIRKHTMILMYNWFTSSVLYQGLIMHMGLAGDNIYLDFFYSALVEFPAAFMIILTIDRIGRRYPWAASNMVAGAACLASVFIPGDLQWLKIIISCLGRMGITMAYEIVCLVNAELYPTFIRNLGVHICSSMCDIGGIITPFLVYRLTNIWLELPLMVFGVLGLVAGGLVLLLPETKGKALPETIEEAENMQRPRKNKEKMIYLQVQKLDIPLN

T2: Solute carrier family 22 member 1 (Homo sapiens, UniProt O15245)
T2 sequence (O15245 whole entry): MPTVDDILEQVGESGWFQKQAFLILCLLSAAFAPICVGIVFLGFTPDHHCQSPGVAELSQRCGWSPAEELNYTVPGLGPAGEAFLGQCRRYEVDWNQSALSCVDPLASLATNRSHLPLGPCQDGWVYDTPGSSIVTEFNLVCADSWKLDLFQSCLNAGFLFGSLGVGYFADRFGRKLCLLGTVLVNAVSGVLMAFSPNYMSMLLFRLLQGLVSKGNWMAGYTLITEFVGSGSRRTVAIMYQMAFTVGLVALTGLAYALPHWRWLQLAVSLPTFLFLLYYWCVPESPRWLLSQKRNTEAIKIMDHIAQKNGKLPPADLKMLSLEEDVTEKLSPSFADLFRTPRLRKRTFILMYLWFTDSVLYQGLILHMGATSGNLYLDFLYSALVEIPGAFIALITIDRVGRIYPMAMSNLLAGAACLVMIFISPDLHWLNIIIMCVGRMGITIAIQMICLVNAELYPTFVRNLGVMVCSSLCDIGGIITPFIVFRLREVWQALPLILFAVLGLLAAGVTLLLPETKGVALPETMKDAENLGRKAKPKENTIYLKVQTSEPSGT


How the values were obtained:
[1] = molecular target: T1, Solute carrier family 22 member 2; experiment: TP_TRANSPORTER: inhibition of TEA uptake in Xenopus laevis oocytes; type: functional, cell-based, Oocyte
[2] = molecular target: T2, Solute carrier family 22 member 1; experiment: (§1) TP_TRANSPORTER: uptake in Xenopus laevis oocytes; type: functional, cell-based; settings: oocyte
[3] = substrate: CC[N+](CC)(CC)CC; experiment: cells, lysate or membranes named
[4] = substrate: C[N+](C)(C)CCO; experiment: cells, lysate or membranes named
[5] = substrate: C=C[C@H]1C[N@@]2CC[C@H]1C[C@H]2[C@H](O)c1ccnc2ccc(OC)cc12; experiment: TP_TRANSPORTER: uptake (electrogenesis) in Xenopus laevis oocytes; type: functional, cell-based, Oocyte
[6] = substrate: CNC(=O)c1cccnc1; experiment: as §1; type: functional, cell-based, Oocyte

| Molecule | Ki [1] [nM] | Activity [2] | other results |
| --- | --- | --- | --- |
| CCN1/C(=C/c2ccc3ccccc3[n+]2CC)C=Cc2ccccc21 | 100 | – | – |
| C[n+]1ccc(-c2ccccc2)cc1 | 2400 | substrate [not saturable] | – |
| CC[n+]1c(CC2C=C(C)N=C(c3ccccc3)N2C)ccc2ccccc21 (centres undefined) [Cyanine-863] | 210 | – | – |
| CC(C)C(c1ccccc1)C(O)CC[N+]1(C)CCCCC1 (centres undefined) [MEPIPERPHENIDOL BROMIDE] | 4800 | – | – |
| COc1cc(C(O)CNC(C)C)ccc1O (centres undefined) [METIPRENALINE] | 570000 | – | – |
| CNC(=O)c1cccnc1 [NICOTINYL METHYLAMIDE] | 266000 | substrate [not saturable] | – |
| CCCCC[N+](CCCCC)(CCCCC)CCCCC [TETRAPENTYLAMMONIUM] | 1500 | – | – |
| CC[N+](CC)(CC)CC [TETRYLAMMONIUM] | – | substrate [not saturable] | – |
| Solute carrier family 22 member 2 (Homo sapiens) (protein) MPTTVDDVLEHGGEFHFFQKQMFFLLALLSATFAPIYVGIVFLGFTPDHRCRSPGVAELSLRCGWSPAEELNYTVPGPGPAGEASPRQCRRYEVDWNQSTFDCVDPLASLDTNRSRLPLGPCRDGWVYETPGSSIVTEFNLVCANSWMLDLFQSSVNVGFFIGSMSIGYIADRFGRKLCLLTTVLINAAAGVLMAISPTYTWMLIFRLIQGLVSKAGWLIGYILITEFVGRRYRRTVGIFYQVAYTVGLLVLAGVAYALPHWRWLQFTVSLPNFFFLLYYWCIPESPRWLISQNKNAEAMRIIKHIAKKNGKSLPASLQRLRLEEETGKKLNPSFLDLVRTPQIRKHTMILMYNWFTSSVLYQGLIMHMGLAGDNIYLDFFYSALVEFPAAFMIILTIDRIGRRYPWAASNMVAGAACLASVFIPGDLQWLKIIISCLGRMGITMAYEIVCLVNAELYPTFIRNLGVHICSSMCDIGGIITPFLVYRLTNIWLELPLMVFGVLGLVAGGLVLLLPETKGKALPETIEEAENMQRPRKNKEKMIYLQVQKLDIPLN | – | – | Km [3]: 31 µM and 76 µM; Km [4]: 190 µM and 210 µM; Km [5]: 2.6 µM; Km [6]: 300 µM |
